{"source": "patent US10293020B2", "about": "“Peptide therapeutics and methods for using same” (Stealth BioTherapeutics Corp, priority 2013, dated 2019)", "key": {"[1]": {"test": "13C MAS PRE solid-state NMR of peptide in Mn2+-bound vesicles", "type": "physicochemical", "from_the_text": "(§1) Large unilamellar vesicles (LUVs) with a transmembrane gradient of about −180 mV are constructed, composed of a mixture of cardiolipin (CL, 10% mol), phosphatidylcholine (PC, 50% mol), and phosphatidylethanolamine (PE, 40% mol). An electrochemical gradient is incorporated because the transloation of MPPs is known to be highly dependent on electrochemical potential. Spectra from three different peptide-lipid systems are compared: Mn^2+ free, Mn^2+ bound to one side of the vesicle, and Mn^2+ bound to both the inside and outside of the vesicle.\nA pH difference is used to establish a transmembrane gradient. The membrane encapsulates 300 mM pH 4 phosphate buffer inside the vesicle and 10 mM pH 7 phosphate buffer outside to establish an electrochemical potential of −177 mV, which is reflective of the biologically encountered mitochondrial gradient of −180 mV. The existence of a three unit pH gradient is confirmed by the fluorescence response of 9-aminoacridine as previously described.\nHydrated CL/PC/PE membranes are formed by dissolving the lipids in a 95:5 benzene:ethanol mixture at an appropriate molar ratio of 0.1/0.5/0.4, respectively. The lipid mixture is lyophilized overnight. The dried lipid cake is rehydrated with 300 mM phosphate buffer at pH 4 which is heated to 85° C. The rehydrated lipid sample is incubated for 2 hours at 85° C. and vortexed periodically to produce multilamellar vesicles (MLVs). The resulting MLVs are down-sized using a mini extruder (Avanti Polar Lipids, Inc.) and passed through a 100 nm polycarbonate membrane 21 times to produce LUVs of uniform diameter of 100 nm. The size of the vesicles is confirmed by dynamic light scattering on a ZetaPALS particle size analyzer. The LUVs are dialyzed for at least 8 hours using a Slide-A-Lyzer (Thermo Fisher Scientific) to remove the low pH, high salt buffer and replace it with 10 mM phosphate buffer at pH 7 for the exterior membrane environment.\nAfter dialysis, the MPP is added at the appropriate molar ratio (P:L=1:10 or P:L=1:40) to the LUVs and incubated overnight. The MPP-lipid mixture is centrifuged at 160 000 g for 1.5 hours to yield a hydrated pellet, which is packed into a 200 μL MAS rotor. For the Mn^2+ containing samples, the Mn^2+ solution is prepared from MnCl2.4H2O and added at 8 mol % of the lipids. To obtain one side Mn^2+ bound vesicles, the Mn^2+ solution is either added after ultracentrifugation or during extrusion, producing outside-bound and inside-bound one side Mn^2+ bound samples. For two side Mn^2+ bound vesicles, the vesicles are extruded with the appropriate percentage of Mn^2+ and had Mn^2+ added after dialysis to replace the ions lost during this process.\n(§2) The spinning rate for all MAS experiments is 5 kHz, performed at 310 K. ^13C direct polarization (DP) MAS NMR spectra is decoupled with two pulse phase modulation (TPPM) at ^1H field strengths of 30 kHz. Typical radiofrequency (rf) pulse lengths are ˜5 μs for ^13C and ˜2 μs for ^1H. Static ^31P spectra are decoupled with WALTZ-16 at ^1H field strengths of 6 kHz. Typical rf pulse lengths are ˜4 μs for ^31P.\nTo assess the remaining two mechanisms of translocation (electroporation and guanidinium-phosphate complexation), a ^13C MAS NMR PRE method at 310 K is used. In order to assure asymmetric distribution of Mn^2+ paramagnetic ions with the new model inner mitochondrial membranes, the ion position is monitoted with the ^31P NMR signal of the lipid heagroups. Without paramagnetic ions present, the entire signal is measured from all the phospholipid headgroups. The addition of Mn^2+ to the outside of the vesicles is expected to cause signal attenuation of about half the lipids, corresponding to dephasing of the outer leaflet. When the paramagnetic ions are on both sides of the bilayer, the entire ^31P signal is expected to be killed because all lipid headgroups will be in close proximity to Mn^2+. […]"}, "[2]": {"test": "Variable temperature static 31P NMR of membrane integrity", "type": "physicochemical", "conditions": "P:L=1:12.5, 280 K-360 K", "from_the_text": "as §1, §2\nStatic ^31P chemical shift anisotropy NMR measurements are conducted at variable temperatures (280 K-360 K) to determine if any changes in membrane morphology or lipid transition temperatures occurr upon peptide binding. The ^31P NMR spectra of the model mitochondria membranes alone are recorded to provide a comparison to the peptide-bound membranes. […]"}}, "note": "Non-standard residues stand in square brackets, D forms with d. No end group written: not given here. Cha = N[C@@H](CC1CCCCC1)C(=O)O"}
{"substance": "[Cha]R[Cha]K-NH2 [MPP]", "values": [{"measurement": "insertion depth in the bilayer", "setting": "[1]; P:L=1:10", "result": "inserted into both leaflets at C2"}, {"measurement": "insertion depth in the bilayer", "setting": "[1]; P:L=1:40", "result": "inserted at approximately C1-C2"}, {"measurement": "leaflet distribution of the peptide", "setting": "[1]; high peptide concentration, P:L=1:10", "result": "distributed in both the inner and outer leaflet"}, {"measurement": "leaflet distribution of the peptide", "setting": "[1]; low peptide concentration, P:L=1:40", "result": "binds only to the outer leaflet"}, {"measurement": "peptide 13C peak signal intensity retained vs unbound sample", "setting": "[1]; one side Mn2+ bound, P:L=1:10", "result": "~75", "unit": "%"}, {"measurement": "peptide 13C peak signal retention", "setting": "[1]; two side Mn2+ bound, P:L=1:10", "result": "about 50%"}, {"measurement": "effect on bilayer integrity", "setting": "[2]", "result": "does not alter the bilayer integrity"}]}
